Data published in the NIST ThermoML archive (doi:10.1021/je700055p).

Assay: relative permittivity at various frequencies (dimensionless)
Conditions: 101.3 kPa, Liquid, Frequency=1 MHz, Coaxial cylinder capacitor

CC#N [acetonitrile]
Conditions	relative permittivity
288.15 K	37.52
293.15 K	36.62
298.15 K	35.88
303.15 K	35.15
308.15 K	34.45
313.15 K	33.75
318.15 K	33.01
323.15 K	32.36
328.15 K	31.62
333.15 K	31.05
